Measured values: ChEMBL document CHEMBL3044538, “QSAR Analysis of BABQ compounds via calculated molecular descriptors” (Med Chem Res, 2006)

What was measured:
[1] = organism: Rattus norvegicus; experiment: Toxicity in Rattus norvegicus (rat); format: organism-based; settings: in vivo
[2] = test system: L1210; experiment: Cytotoxicity against Mus musculus (mouse) L1210 cells; format: functional
[3] = test system: B16; experiment: Antitumor activity against Mus musculus (mouse) B16 cells xenografted in rat; format: functional
[4] = test system: L1210; experiment: Antitumor activity against Mus musculus (mouse) L1210 cells xenografted in rat; format: functional

Row | Structure (SMILES) | log(1/LD50) [1] | log(1/MIC) [2] | log(1/MIC) [3] | log(1/MIC) [4]
1 | CC1CN1C1=C(F)C(=O)C(N2CC2C)=C(N2CC2C)C1=O (centres undefined) | 1.45 |  |  | 
2 | O=C1C=C(N2CCCC2)C(=O)C=C1N1CCCC1 |  | -1.6 |  | 
3 | CC1=C(N2CC2)C(=O)C(CCO)=C(N2CC2)C1=O | 1.39 |  | 3.6 | 
4 | CC1CN1C1=C(N2CCCC2)C(=O)C(N2CC2C)=C(N2CCCC2)C1=O (centres undefined) |  | -1.1 |  | 
5 | O=C1C(F)=C(N2CC2)C(=O)C(F)=C1N1CC1 |  | -0.2 |  | 
6 | COC1=C(N2CC2)C(=O)C(OC)=C(N2CC2)C1=O |  | 0.15 |  | 
7 | CN(CCO)C1=C(N2CC2)C(=O)C(N(C)CCO)=C(N2CC2)C1=O |  | 0.09 |  | 
8 | COC(COC(N)=O)C1=C(N2CC2)C(=O)C(C)=C(N2CC2)C1=O (centres undefined) [CARBOQUONE] | 1.73 |  |  | 
9 | CCOC(=O)NC1=C(N2CC2C)C(=O)C(NC(=O)OCC)=C(N2CC2C)C1=O (centres undefined) | 0.69 | -1 |  | 
10 | CC1=C(N2CC2)C(=O)C(CCOC(N)=O)=C(N2CC2)C1=O | 1.99 |  |  | 
11 | O=C1C(NCCO)=C(N2CC2)C(=O)C(NCCO)=C1N1CC1 |  | 0.42 | 3.94 | 3.39
12 | CC1=C(N2CC2C)C(=O)C(Br)=C(N2CC2C)C1=O (centres undefined) | 1.59 |  |  | 
13 | CCC1=C(N2CC2)C(=O)C(Br)=C(N2CC2)C1=O | 1.39 |  | 2.6 | 
14 | O=C1C(Br)=C(N2CC2)C(=O)C(Br)=C1N1CC1 |  | 0.35 |  | 
15 | CC1=C(C)C(=O)C(N2CC=CC2)=CC1=O |  | -0.7 |  | 
16 | O=C1C(Cl)=C(N2CC2)C(=O)C(Cl)=C1N1CC1 |  | -0.3 |  | 
17 | O=C1C=C(N2CC=CC2)C(=O)C=C1N1CC=CC1 |  | -1.6 |  | 
18 | CC1CN1C1=C(Br)C(=O)C(N2CC2C)=C(Br)C1=O (centres undefined) |  | 0.77 |  | 
19 | COC1=C(C)C(=O)C(N2CCCC2)=CC1=O |  | -1.6 |  | 

Row | Structure (SMILES) | log(1/LD50) [1] | log(1/MIC) [2] | log(1/MIC) [3] | log(1/MIC) [4]
20 | COC1=C(N2CC2C)C(=O)C=C(N2CC2C)C1=O (centres undefined) | 1.4 | -0.5 | 2.27 | 1.47
21 | O=C1C=C(N2CC2)C(=O)C(N2CC2)=C1N1CC1 [TRIAZIQUONE] | 2.66 |  | 3.8 | 
22 | O=C1C=C(N2CC2)C(=O)C=C1N1CC1 | 1.8 |  |  | 
23 | CC1=C(N2C(C)C2C)C(=O)C(Br)=C(N2C(C)C2C)C1=O (centres undefined) | 0.63 | -0.1 |  | 0.69
24 | CCOC(=O)NC1=CC(=O)C(NC(=O)OCC)=CC1=O |  | 0.09 |  | 
25 | CC1CN1C1=CC(=O)C(N2CC2C)=C(F)C1=O (centres undefined) | 1.5 | 1.49 |  | 
26 | CC1=C(C)C(=O)C(N2CCCC2)=CC1=O |  | -1.7 |  | 
27 | O=C1C(F)=C(N2CC2)C(=O)C(N2CC2)=C1N1CC1 | 1.62 |  |  | 
28 | CCC1=C(N2CC2)C(=O)C(C)=C(N2CC2)C1=O | 1.46 | -0.3 |  | 
29 | CCOC(=O)NC1=C(N2CC2)C(=O)C(NC(=O)OCC)=C(N2CC2)C1=O [DIAZIQUONE] | 1.54 | -0.5 |  | 
30 | O=C1C(N2CCCC2)=C(N2CC2)C(=O)C(N2CCCC2)=C1N1CC1 |  | -0.3 | 2.4 | 
31 | CC1=C(N2CC2C)C(=O)C(CCOC(N)=O)=C(N2CC2C)C1=O (centres undefined) |  | -0.1 |  | 
32 | CNC1=C(N2CC2C)C(=O)C(NC)=C(N2CC2C)C1=O (centres undefined) |  | -0.3 | 2.33 | 2.19
33 | CC1CN1C1=C(Cl)C(=O)C(N2CC2C)=C(Cl)C1=O (centres undefined) |  | -0.6 |  | 1.16
34 | O=C1C(N2CC2)=C(N2CC2)C(=O)C(N2CC2)=C1N1CC1 |  | 0.9 |  | 
35 | CC1CN1C1=CC(=O)C(N2CC2C)=CC1=O (centres undefined) | 1.16 |  |  | 
36 | CC1=C(N2CC2)C(=O)C(Br)=C(N2CC2)C1=O | 1.44 |  |  | 
37 | NC(=O)OCCC1=C(N2CC2)C(=O)C(Br)=C(N2CC2)C1=O | 1.05 |  |  | 2
38 | CNC1=C(N2CC2)C(=O)C(NC)=C(N2CC2)C1=O |  | 0.32 | 3.14 | 2.49
